This note sets out measurements from US8754057B2, “Inhibition of apoptosis-specific eIF-5A(eIF-5A1″) with antisense oligonucleotides and siRNA as anti-inflammatory therapeutics” (Senesco Technologies, Inc., priority 2003, dated 2014).

*1 amine or outer side, *2 acyl side, *3 side chain or, on linkers, in order; H or OH if unused. Where a SMILES comes first, the peptide text is derived from it. Bridges are numbered along the chain shown (N, C = ends). Roman numbers before positions name the chains, in order. [ ]: non-standard residue; d: D form. Actinocin(9to1) = Cc1c2oc3c(C)ccc(C(=O)[*:1])c3nc-2c(C(=O)[*:2])c(N)c1=O; NMeV = CN[C@H](C(=O)O)C(C)C; Sar = CNCC(=O)O

Common to all, as to type: cell-based, human
The test system of data set [1] is lamina cribrosa cell line #506. Nature of the data set: Hoescht staining apoptosis of siRNA-transfected lamina cribrosa cells treated with TNF-α and camptothecin. The settings on record: LC #506, 72 h after siRNA transfection, 24 h 10 ng/ml TNF-α plus 50 μM camptothecin. As for the experimental part: Lamina cribrosa cell line #506 cells were seeded at 7500 cells per well onto an 8-well culture slide. Three days later the LC cells were transfected with either GAPDH siRNA, apoptosis-specific eIF-5A siRNAs #1-4 (SEQ ID NO:30-33), or control siRNA #5 (SEQ ID NO:34). 72 hours after transfection, the transfected cells were treated with 10 ng/ml TNF-α plus 50 μM camptothecin. Twenty-four hours later the cells were stained with Hoescht 33258 and viewed by fluorescence microscopy using a UV filter. Cells with brightly stained condensed or fragmented nuclei were counted as apoptotic. This graph represents the average of n=4 independent experiments.
Following transfection, RKO and lamina cribrosa cells were incubated for 72 hours prior to collection of cellular extract for Western blot analysis. In order to determine the effectiveness of the siRNAs directed against apoptosis-specific eIF-5A to block apoptosis, lamina cribrosa cells were treated with 50 μM of camptothecin (Sigma) and 10 ng/ml of TNF-α (Leinco Technologies) to induce apoptosis either 48 or 72 hours after transfection. The cells were stained with Hoescht either 24 or 48 hours later in order to determine the percentage of cells undergoing apoptosis.
Small inhibitory RNAs (siRNAs) directed against human apoptosis-specific eIF-5A were used to specifically suppress expression of eIF5A in lamina cribrosa cells. Six siRNAs were generated by in vitro transcription using the Silencer™ siRNA Construction Kit (Ambion Inc.), Four siRNAs were generated against human apoptosis-specific eIF-5A (siRNAs #1 to #4). […] The siRNAs were generated according to the manufacturer's protocol. The eIF5A and control siRNA targets had the following sequences: siRNA #1 5′ […] 3′ (SEQ ID NO: 81); siRNA #2 5′ […] 3′ (SEQ ID NO: 82); siRNA #3 5′ […] 3′ (SEQ ID NO: 83); siRNA #4 5′ […] 3′ (SEQ ID NO: 84); siRNA #5′ […] 3′ (SEQ ID NO: 85). Lamina cribrosa cells were transfected with siRNA using LipofectAMINE 2000.
Lamina cribrosa cells were transfected when cell confluence was at 40 to 70% and were generally seeded onto 8-well culture slides at 7500 cells per well three days prior to transfection. Transfection medium sufficient for one well of an 8-well culture slide was prepared by diluting 25.5 proles of siRNA to a final volume of 21.2 μl in Opti-Mem (Sigma). 0.425 μl of Lipofectamine 2000 was diluted to a final volume of 21.2 μl in Opti-Mem and incubated for 7 to 10 minutes at room temperature. The diluted Lipofectamine 2000 mixture was then added to the diluted siRNA mixture and incubated together at room temperature for 20 to 30 minutes, The cells were washed once with serum-free media before adding 135 μl of serum-free media to the cells and overlaying 42.4 μl of transfection medium. […]

Data set [2] concerns apoptosis-specific eIF-5A. Nature of the data set: Western blot of HT-29 cells treated with IFN gamma. The settings on record: at 8 hours. As for the experimental part: FIG. 81 is a western blot of HT-29 cells treated with IFN gamma for 8 and 24 hours.
Priming the cells with interferon gamma prior to TNF treatment causes the cells to produce more IL-8 than either treatment alone. This may be due to the known upregulation of the TNF receptor 1 in response to interferon, so ‘priming’ the cells with interferon allows them to respond to TNF better since the cells have more receptors. siRNA against apoptosis-specific eIF-5A had no effect on IL-8 production in response to TNF alone (previous experiment) however, the siRNA blocked almost all IL-8 produced in response to interferon as well as a significant amount of the IL-8 produced as a result of the combined treatment of interferon and TNF. […] FIG. 81 is a western showing up-regulation (4 fold at 8 hours) of apoptosis-specific eIF-5A in response to interferon gamma in HT-29 cells.
In general terms: A western blot detects proteins with antibodies after separation by electrophoresis.

Data set [3] deals with lamina cribrosa cell line #506. The experiment in a line: TUNEL labeling of siRNA-transfected LC cells treated with TNF-α and camptothecin. The settings on record: LC #506, TNF-α and camptothecin 24 h. As for the experimental part: Lamina cribrosa cell line #506 cells were seeded at 7500 cells per well onto an 8-well culture slide. Three days later the LC cells were transfected with either apoptosis-specific eIF-5A siRNA #1 (SEQ ID NO:30) or control siRNA #5 (SEQ ID NO:34). 72 hours after transfection, the transfected cells were treated with 10 ng/ml TNF-α plus 50 μM camptothecin. Twenty-four hours later the cells were stained with Hoescht 33258 and DNA fragmentation was evaluated in situ using the terminal deoxynucleotidyl transferase-mediated dUTP-digoxigenin nick end labeling (TUNEL) method. Panel A represents the slide observed by fluorescence microscopy using a fluorescein filter to visualize TUNEL-labeling of the fragmented DNA of apoptotic cells. Panel B represents the same slide observed by through a UV filter to visualize the Hoescht-stained nuclei. The results are representative of two independent experiments. All pictures were taken at 400 times magnification.
Transfected cells that had been treated with TNF-α and camptothecin for 24 hours were stained with Hoescht 33258 in order to determine the percentage of cells undergoing apoptosis. Briefly, cells were fixed with a 3:1 mixture of absolute methanol and glacial acetic acid and then incubated with Hoescht stain (0.5 μg/ml Hoescht 33258 in PBS). After a 10 minute incubation in the dark, the staining solution was discarded, the chambers separating the wells of the culture slide were removed, and the slide was washed 3 times for 1 minute with deionized water. After washing, a few drops of Mcllvaine's buffer (0.021 M citric acid, 0.058 M Na2HPO4.7H2O; pH 5.6) was added to the cells and overlaid with a coverslip. The stained cells were viewed under a fluorescent microscope using a UV filter. Cells with brightly stained or fragmented nuclei were scored as apoptotic. A minimum of 200 cells were counted per well. The DeadEnd™ Fluorometric TUNEL (Promega) was also used to detect the DNA fragmentation that is a characteristic feature of apoptotic cells. Following Hoescht staining, the culture slide was washed briefly with distilled water, and further washed by immersing the slide twice for 5 minutes in PBS (137 mM NaCl, 2.68 mM KCl, 1.47 mM KH2PO4, 8.1 mM Na2HPO4), blotting the slide on paper towel between washes. The cells were permeabilized by immersing them in 0.2% Triton X-100 in PBS for 5 minutes. The cells were then washed again by immersing the slide twice for 5 minutes in PBS and blotting the slide on paper towel between washes. 25 μl of equilibration buffer [200 mM potassium cacodylate (pH 6.6), 25 mM. Tris-HCl (pH 6.6), 0.2 mM dithiothreitol, 0.25 mg/ml bovine serum albumin, and 2.5 mM cobalt chloride] was added per well and incubated for 5 to 10 minutes. […] Any cells with brightly stained or fragmented nuclei were scored as apoptotic. […]

For data set [4], the system named is lamina cribrosa cell line #506. As to conditions: 48 hours; Hoescht staining. As for the experimental part:
FIG. 83 is a graph showing percent apoptosis of lamina cribrosa cell line #506 in response to treatment with camptothecin and TNF-α. Lamina cribrosa cell line #506 cells were seeded at 40,000 cells per well onto an 8-well culture slide. Three days later the confluent LC cells were treated with either 10 ng/ml TNF-α, 50 μM camptothecin, or 10 ng/ml TNF-α plus 50 μM camptothecin. An equivalent volume of DMSO, a vehicle control for camptothecin, was added to the untreated control cells. The cells were stained with Hoescht 33258 48 hours after treatment and viewed by fluorescence microscopy using a UV filter. Cells with brightly stained condensed or fragmented nuclei were counted as apoptotic.
Apoptosis was induced in lamina cribrosa cells using a combination of 50 μM camptothecin (Sigma) and 10 ng/ml TNF-α (Leinco Technologies).
Since TNF-α is believed to play an important role during the glaucomatous process, the susceptibility of LC cells to the cytotoxic effects of TNF-α was examined. Confluent LC cells were exposed to either camptothecin, TNF-α, or a combination of camptothecin and TNF-α for 48 hours (FIG. 83).

The subject of data set [5] is RKO cells. Nature of the data set: Western blots of RKO cells treated with Actinomycin D. As to conditions: 0.25 μg/ml Actinomycin D for 0, 3, 7, 24, and 48 hours. The protocol: FIG. 43 provides Western blots of protein extracted from RKO cells treated with 0.25 μg/ml Actinomycin D for 0, 3, 7, 24, and 48 hours. The top panel depicts a Western blot using anti-p53 as the primary antibody. The middle panel depicts a Western blot using anti-apoptosis-specific eIF-5A as the primary antibody.

As for “siRNA #2: siRNA against human apoptosis-specific eIF-5A (SEQ ID NO:31); target 5′ AAGATCGTCGAGATGTCTACT 3′ (SEQ ID NO: 82) (AAGAUCGUCGAGAUGUCUACUUC; unmodified RNA; listed as Homo sapiens)”, in data set [1], the “reduce apoptosis of LC cells” value amounted to 35%. In the case of “interferon gamma: interferon gamma (Roche Diagnostics)”, the “up-regulation of apoptosis-specific eIF-5A” value in data set [2] came to 4 fold. For “siRNA #5: control siRNA (SEQ ID NO:34) with the reverse sequence of siRNA #1; does not target eIF5A (AAAGTCGACCTTCAGTAAGGATT; listed as DNA, chemistry not fully specified; listed as Homo sapiens)”, the “LC cells positive for TUNEL staining” value in data set [3] (3 days after transfection) is on record as 46%. Turning to “siRNA #4: siRNA against human apoptosis-specific eIF-5A (SEQ ID NO:33); target 5′ AAGCTGGACTCCTCCTACACA 3′ (SEQ ID NO: 84) (AAGCTGGACTCCTCCTACACAAT; listed as DNA, chemistry not fully specified; listed as Homo sapiens)”, the “reduce apoptosis of LC cells” value in data set [1] stood at 69%. Moreover, in data set [3] (TUNEL), the “protection from apoptosis relative to the control siRNA” value is reported as “greater than 60%”. On to “siRNA #3: siRNA against human apoptosis-specific eIF-5A (SEQ ID NO:32); target 5′ AAGGTCCATCTGGTTGGTATT 3′ (SEQ ID NO: 83) (AAGGUCCAUCUGGUUGGUAUUGA; unmodified RNA; listed as Homo sapiens)”, for which the “reduce apoptosis of LC cells” value in data set [1] worked out at 50%.

On to TNF-α, for which the “cytotoxic to LC cells” value in data set [4] is “not cytotoxic”. As for `Cc1c2oc3c(C)ccc(C(=O)N[C@@H]4C(=O)N[C@H](C(C)C)C(=O)N5CCC[C@H]5C(=O)N(C)CC(=O)N(C)[C@@H](C(C)C)C(=O)O[C@@H]4C)c3nc-2c(C(=O)N[C@@H]2C(=O)N[C@H](C(C)C)C(=O)N3CCC[C@H]3C(=O)N(C)CC(=O)N(C)[C@@H](C(C)C)C(=O)O[C@@H]2C)c(N)c1=O` [Actinomycin D] (I: T[dV]P[Sar][NMeV] / II: T[dV]P[Sar][NMeV]; ester I:1-I:C, II:1-II:C; linker I:N-II:N via Actinocin(9to1)), in data set [5], the “apoptosis-specific eIF-5A protein” value is recorded as “upregulated” and the p53 protein entry is given as “upregulated”.
